# Laboratory results from patent publication US20250129430A1, “HIGH ATP-AFFINITY PROTEIN AS THERAPEUTIC TARGET FOR INTRACTABLE CANCER MOLECULAR SUBTYPES AND INHIBITOR THEREOF” (VeraVerse Co., Ltd., priority 2021, published 2025).
# Counter-ions that a name gives are not always drawn.
# Key:
# Assay in all cases: Cell viability drug screen, 12-point dose-response AUC
# Assay type in all cases: cell-based, human
# AGS = settings: 72 hours; for Average Area Under the Viability Curve (AUC), AUC norm value: AGS cells (non-SEM subtype)
# Procedure, shortened: (§1)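 Luminescent viability readings, taken 15 min after reagent addition at room temperature, were normalized to the 0.5% DMSO control to build 12-point dose-response curves. Trapezoidal integration gave the AUC. Cells had been plated at 5×10^3 per well and then exposed to half-log dilutions for 72 h.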
# Hs746T = settings: 72 hours; for Average Area Under the Viability Curve (AUC), AUC norm value: Hs746T cells (SEM subtype)
# Procedure, shortened: (§2)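 Twelve half-log concentrations per compound were tested on gastric cancer cells with an EMT phenotype (5×10^3/well, dosed 24 h post-seeding). Viability after 72 h was quantified via luminescence relative to 0.5% DMSO, and repeats were averaged.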
# KATO3 = KATO3 cells, 72 hours
# Procedure, shortened: as §2
# MKN1 = MKN1 cells, 72 hours
# Procedure, shortened: as §2
# MKN28 = MKN28 cells, 72 hours
# Procedure, shortened: as §2
# MKN45 = settings: 72 hours; for Average Area Under the Viability Curve (AUC), AUC norm value: MKN45 cells (non-SEM subtype)
# Procedure, shortened: as §1
# MKN74 = MKN74 cells, 72 hours
# Procedure, shortened: as §1
# NCC19 = NCC19 cells, 72 hours
# Procedure, shortened: as §2
# NCC20 = NCC20 cells, 72 hours
# Procedure, shortened: as §2
# NCC24 = NCC24 cells, 72 hours
# Procedure, shortened: as §2
# NCC59 = NCC59 cells, 72 hours
# Procedure, shortened: as §2
# NCI_N87 = NCI_N87 cells, 72 hours
# Procedure, shortened: as §2
# OCUM1 = OCUM1 cells, 72 hours
# Procedure, shortened: as §2
# SK4 = settings: 72 hours; for Average Area Under the Viability Curve (AUC), AUC norm value: SK4 cells (SEM subtype)
# Procedure, shortened: as §2
# SNU16 = SNU16 cells, 72 hours
# Procedure, shortened: as §2
# SNU1750 = settings: 72 hours; for Average Area Under the Viability Curve (AUC), AUC norm value: SNU1750 cells (SEM subtype)
# Procedure, shortened: as §2
# SNU1967 = SNU1967 cells, 72 hours
# Procedure, shortened: as §2
# SNU1 = SNU1 cells, 72 hours
# Procedure, shortened: as §2
# SNU216 = settings: 72 hours; for Average Area Under the Viability Curve (AUC), AUC norm value: SNU216 cells (non-SEM subtype)
# Procedure, shortened: as §1
# SNU484 = settings: 72 hours; for Average Area Under the Viability Curve (AUC), AUC norm value: SNU484 cells (SEM subtype)
# Procedure, shortened: as §2
# SNU601 = SNU601 cells, 72 hours
# Procedure, shortened: as §2
# SNU620 = SNU620 cells, 72 hours
# Procedure, shortened: as §2
# SNU638 = SNU638 cells, 72 hours
# Procedure, shortened: as §2
# SNU668 = settings: 72 hours; for Average Area Under the Viability Curve (AUC), AUC norm value: SNU668 cells (SEM subtype)
# Procedure, shortened: as §2
# SNU719 = SNU719 cells, 72 hours
# Procedure, shortened: as §1
# YCC11 = settings: 72 hours; for Average Area Under the Viability Curve (AUC), AUC norm value: YCC11 cells (SEM subtype)
# Procedure, shortened: as §2
# YCC2 = YCC2 cells, 72 hours
# Procedure, shortened: as §2
# YCC3 = YCC3 cells, 72 hours
# Procedure, shortened: as §2
# FU97 = test system: FU97; design: Average Area Under the Viability Curve (AUC), AUC norm value: scale not given here; settings: FU97 cells, 72 hours
# Procedure, shortened: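 Trapezoidal AUC of a 12-point, DMSO-normalized dose-response curve. Luminescent viability was measured after 72 h of exposure at 37° C to half-log serial dilutions (0.5% DMSO control), dosed 24 h after plating FU97 cells at 5×10^3 per well.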
smiles,measurement,setting,value
CC(C)C[C@H](NC(=O)CNC(=O)c1cc(Cl)ccc1Cl)B1OC(=O)C(CC(=O)O)(CC(=O)O)O1 [MLN9708],"Average Area Under the Viability Curve (AUC), AUC norm value",AGS,−0.6988
same,"Average Area Under the Viability Curve (AUC), AUC norm value",Hs746T,−1.547
same,"Average Area Under the Viability Curve (AUC), AUC norm value",KATO3,0.559
same,"Average Area Under the Viability Curve (AUC), AUC norm value",MKN1,0.06734
same,"Average Area Under the Viability Curve (AUC), AUC norm value",MKN28,0.1368
same,"Average Area Under the Viability Curve (AUC), AUC norm value",MKN45,0.2581
same,"Average Area Under the Viability Curve (AUC), AUC norm value",MKN74,−0.4008
same,"Average Area Under the Viability Curve (AUC), AUC norm value",NCC19,−0.7913
same,"Average Area Under the Viability Curve (AUC), AUC norm value",NCC20,−1.527
same,"Average Area Under the Viability Curve (AUC), AUC norm value",NCC24,−0.9085
same,"Average Area Under the Viability Curve (AUC), AUC norm value",NCC59,−0.3472
same,"Average Area Under the Viability Curve (AUC), AUC norm value",NCI_N87,1.9321
same,"Average Area Under the Viability Curve (AUC), AUC norm value",OCUM1,2.097
same,"Average Area Under the Viability Curve (AUC), AUC norm value",SK4,0.4078
same,"Average Area Under the Viability Curve (AUC), AUC norm value",SNU16,−2.259
same,"Average Area Under the Viability Curve (AUC), AUC norm value",SNU1750,−2.161
same,"Average Area Under the Viability Curve (AUC), AUC norm value",SNU1967,−1.556
same,"Average Area Under the Viability Curve (AUC), AUC norm value",SNU1,0.02493
same,"Average Area Under the Viability Curve (AUC), AUC norm value",SNU216,0.1416
same,"Average Area Under the Viability Curve (AUC), AUC norm value",SNU484,−1.069
same,"Average Area Under the Viability Curve (AUC), AUC norm value",SNU601,0
same,"Average Area Under the Viability Curve (AUC), AUC norm value",SNU620,−0.7036
same,"Average Area Under the Viability Curve (AUC), AUC norm value",SNU638,0.0059
same,"Average Area Under the Viability Curve (AUC), AUC norm value",SNU668,1.232
same,"Average Area Under the Viability Curve (AUC), AUC norm value",SNU719,1.304
same,"Average Area Under the Viability Curve (AUC), AUC norm value",YCC11,−1.824
same,"Average Area Under the Viability Curve (AUC), AUC norm value",YCC2,0.3377
same,"Average Area Under the Viability Curve (AUC), AUC norm value",YCC3,2.717
same,"Average Area Under the Viability Curve (AUC), AUC norm value",FU97,−1.568
O=C1c2c(O)ccc(O)c2C(=O)c2c(NCCNCCO)ccc(NCCNCCO)c21 [Mitoxantrone Hydrochloride],"area under the viability curve (AUC), normalized","AGS; AGS cells, 12-point dose-response",−1.671
same,"area under the viability curve (AUC), normalized","Hs746T; Hs746T cells, 12-point dose-response",0.5925
same,"area under the viability curve (AUC), normalized",KATO3; 12-point dose-response,4.807
same,"area under the viability curve (AUC), normalized",MKN1; 12-point dose-response,−1.197
same,"area under the viability curve (AUC), normalized",MKN28; 12-point dose-response,1.616
same,"area under the viability curve (AUC), normalized","MKN45; MKN45 cells, 12-point dose-response",2.014
same,"area under the viability curve (AUC), normalized",MKN74; 12-point dose-response,−0.2914
same,"area under the viability curve (AUC), normalized",NCC19; 12-point dose-response,2.884
same,"area under the viability curve (AUC), normalized",NCC20; 12-point dose-response,−0.7422
same,"area under the viability curve (AUC), normalized",NCC24; 12-point dose-response,−1.038
same,"area under the viability curve (AUC), normalized",NCC59; 12-point dose-response,1.001
same,"area under the viability curve (AUC), normalized",NCI_N87; 12-point dose-response,2.6755
same,"area under the viability curve (AUC), normalized",OCUM1; 12-point dose-response,0.8078
same,"area under the viability curve (AUC), normalized","SK4; SK4 cells, 12-point dose-response",−0.6127
same,"area under the viability curve (AUC), normalized",SNU16; 12-point dose-response,1.6
same,"area under the viability curve (AUC), normalized","SNU1750; SNU1750 cells, 12-point dose-response",−0.3587
same,"area under the viability curve (AUC), normalized",SNU1967; 12-point dose-response,−1.342
same,"area under the viability curve (AUC), normalized",SNU1; 12-point dose-response,0
same,"area under the viability curve (AUC), normalized","SNU216; SNU216 cells, 12-point dose-response",1.1656
same,"area under the viability curve (AUC), normalized","SNU484; SNU484 cells, 12-point dose-response",−1.158
same,"area under the viability curve (AUC), normalized",SNU601; 12-point dose-response,−0.5251
same,"area under the viability curve (AUC), normalized",SNU620; 12-point dose-response,−0.6012
same,"area under the viability curve (AUC), normalized",SNU638; 12-point dose-response,−1.06
same,"area under the viability curve (AUC), normalized","SNU668; SNU668 cells, 12-point dose-response",−0.6581
same,"area under the viability curve (AUC), normalized",SNU719; 12-point dose-response,3.647
same,"area under the viability curve (AUC), normalized","YCC11; YCC11 cells, 12-point dose-response",−1.252
same,"area under the viability curve (AUC), normalized",YCC2; 12-point dose-response,0.5126
same,"area under the viability curve (AUC), normalized",YCC3; 12-point dose-response,2.27
same,"area under the viability curve (AUC), normalized",FU97; 12-point dose-response,0.4542
"CCOc1cc2ncc(C#N)c(Nc3ccc(OCc4ccccn4)c(Cl)c3)c2cc1NC(=O)/C=C/CN(C)C [Neratinib (HKI-272), Neratinib]","Average Area Under the Viability Curve (AUC), AUC norm value",AGS,−0.9315
same,"Average Area Under the Viability Curve (AUC), AUC norm value",Hs746T,−0.2204
same,"Average Area Under the Viability Curve (AUC), AUC norm value",KATO3,1.505
same,"Average Area Under the Viability Curve (AUC), AUC norm value",MKN1,−0.4985
same,"Average Area Under the Viability Curve (AUC), AUC norm value",MKN28,0.1864
same,"Average Area Under the Viability Curve (AUC), AUC norm value",MKN45,3.029
same,"Average Area Under the Viability Curve (AUC), AUC norm value",MKN74,−1.144
same,"Average Area Under the Viability Curve (AUC), AUC norm value",NCC19,2.052
same,"Average Area Under the Viability Curve (AUC), AUC norm value",NCC20,−1.6785
same,"Average Area Under the Viability Curve (AUC), AUC norm value",NCC24,1.205
same,"Average Area Under the Viability Curve (AUC), AUC norm value",NCC59,1.9785
same,"Average Area Under the Viability Curve (AUC), AUC norm value",NCI_N87,−5.051
same,"Average Area Under the Viability Curve (AUC), AUC norm value",OCUM1,1.056
same,"Average Area Under the Viability Curve (AUC), AUC norm value",SK4,−1.282
same,"Average Area Under the Viability Curve (AUC), AUC norm value",SNU16,−1.491
same,"Average Area Under the Viability Curve (AUC), AUC norm value",SNU1750,−0.4123
same,"Average Area Under the Viability Curve (AUC), AUC norm value",SNU1967,0.8381
same,"Average Area Under the Viability Curve (AUC), AUC norm value",SNU1,1.038
same,"Average Area Under the Viability Curve (AUC), AUC norm value",SNU216,−2.1011
same,"Average Area Under the Viability Curve (AUC), AUC norm value",SNU484,−1.2895
same,"Average Area Under the Viability Curve (AUC), AUC norm value",SNU601,0.802
same,"Average Area Under the Viability Curve (AUC), AUC norm value",SNU620,1.117
same,"Average Area Under the Viability Curve (AUC), AUC norm value",SNU638,0
same,"Average Area Under the Viability Curve (AUC), AUC norm value",SNU668,0.8456
same,"Average Area Under the Viability Curve (AUC), AUC norm value",SNU719,1.894
same,"Average Area Under the Viability Curve (AUC), AUC norm value",YCC11,−1.333
same,"Average Area Under the Viability Curve (AUC), AUC norm value",YCC2,−0.1749
same,"Average Area Under the Viability Curve (AUC), AUC norm value",YCC3,0.3013
same,"Average Area Under the Viability Curve (AUC), AUC norm value",FU97,−0.2016
